In patent US20230286970A1, “NOVEL OXADIAZOLE-BASED SELECTIVE HDAC6 INHIBITORS” (ITALFARMACO S.P.A., priority 2020, published 2023):
pIC50: −log10 of the molar value.

Tests used:
[1] = Stability to Phase I metabolism in rat S9 liver fraction; details: after 90 minutes, 37° C.
Protocol: Test compounds were incubated in rat and human liver S9 fraction at 37° C. up to 90 minutes in order to evaluate their stability to Phase I metabolism by hepatic enzymes. Each test compound was incubated at μM concentration (50 μM when the samples were analysed by UV/HPLC, 1 or 2 μM when the samples were analysed by LC-MS/MS) with S9 fraction (protein content 2 mg/m L) in 100 mM phosphate buffer (pH 7.4), 3.3 mM MgCl2 and 1.3 mM NADPH for 0, 10, 30, 60 and 90 minutes at 37° C. in a thermostated oscillating bath. The reaction was stopped placing samples on ice bath and adding acidified acetonitrile. After centrifugation (10 minutes at 14000 rpm) an aliquot of the supernatant was diluted with water, filtered with 0.45 μm regenerated cellulose syringe filters and injected in HPLC-UV or in LC-MS/MS. The percentage of the remaining amount at the various incubation times with respect to the initial amount were calculated.

Stability in rat plasma = details: after 4 hours, 37° C.
recombinant human HDAC1 = recombinant human HDAC1 (Homo sapiens (Human), UniProt Q13547); assay: Enzymatic screening, HDAC1 inhibition (fluorogenic FdL_G substrate); format: biochemical
Sequence of recombinant human HDAC1 (Q13547 whole entry): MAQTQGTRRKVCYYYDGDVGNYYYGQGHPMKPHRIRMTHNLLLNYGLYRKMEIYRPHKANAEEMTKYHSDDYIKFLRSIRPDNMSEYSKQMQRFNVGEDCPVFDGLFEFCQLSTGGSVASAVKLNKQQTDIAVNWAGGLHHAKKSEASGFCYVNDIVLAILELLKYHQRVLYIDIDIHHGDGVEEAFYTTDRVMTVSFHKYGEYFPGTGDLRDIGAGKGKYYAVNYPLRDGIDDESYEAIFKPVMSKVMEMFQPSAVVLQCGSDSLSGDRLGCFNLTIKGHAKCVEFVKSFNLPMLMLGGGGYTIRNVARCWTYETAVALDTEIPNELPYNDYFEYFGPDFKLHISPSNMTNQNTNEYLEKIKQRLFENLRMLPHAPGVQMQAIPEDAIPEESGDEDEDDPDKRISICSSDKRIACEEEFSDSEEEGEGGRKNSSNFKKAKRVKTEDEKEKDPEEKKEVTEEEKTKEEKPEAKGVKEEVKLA
In short: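 Recombinant human HDAC1 inhibition was measured fluorometrically using the FLUOR DE LYS-Green (FdL_G) substrate. Compounds at 8 doses (1% DMSO final) in Tris-HCl pH 8 buffer with NaCl, Tween-20 and glycerol were preincubated in triplicate with enzyme and 1 mg/mL BSA, then given substrate. Developer I plus 2 μM TSA was added, and fluorescence read after 25 minutes in the dark.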

recombinant human HDAC6 = recombinant human HDAC6 (Homo sapiens (Human), UniProt Q9UBN7); assay: Enzymatic screening, HDAC6 inhibition (fluorogenic FdL_G substrate); format: biochemical
Sequence of recombinant human HDAC6 (Q9UBN7 whole entry): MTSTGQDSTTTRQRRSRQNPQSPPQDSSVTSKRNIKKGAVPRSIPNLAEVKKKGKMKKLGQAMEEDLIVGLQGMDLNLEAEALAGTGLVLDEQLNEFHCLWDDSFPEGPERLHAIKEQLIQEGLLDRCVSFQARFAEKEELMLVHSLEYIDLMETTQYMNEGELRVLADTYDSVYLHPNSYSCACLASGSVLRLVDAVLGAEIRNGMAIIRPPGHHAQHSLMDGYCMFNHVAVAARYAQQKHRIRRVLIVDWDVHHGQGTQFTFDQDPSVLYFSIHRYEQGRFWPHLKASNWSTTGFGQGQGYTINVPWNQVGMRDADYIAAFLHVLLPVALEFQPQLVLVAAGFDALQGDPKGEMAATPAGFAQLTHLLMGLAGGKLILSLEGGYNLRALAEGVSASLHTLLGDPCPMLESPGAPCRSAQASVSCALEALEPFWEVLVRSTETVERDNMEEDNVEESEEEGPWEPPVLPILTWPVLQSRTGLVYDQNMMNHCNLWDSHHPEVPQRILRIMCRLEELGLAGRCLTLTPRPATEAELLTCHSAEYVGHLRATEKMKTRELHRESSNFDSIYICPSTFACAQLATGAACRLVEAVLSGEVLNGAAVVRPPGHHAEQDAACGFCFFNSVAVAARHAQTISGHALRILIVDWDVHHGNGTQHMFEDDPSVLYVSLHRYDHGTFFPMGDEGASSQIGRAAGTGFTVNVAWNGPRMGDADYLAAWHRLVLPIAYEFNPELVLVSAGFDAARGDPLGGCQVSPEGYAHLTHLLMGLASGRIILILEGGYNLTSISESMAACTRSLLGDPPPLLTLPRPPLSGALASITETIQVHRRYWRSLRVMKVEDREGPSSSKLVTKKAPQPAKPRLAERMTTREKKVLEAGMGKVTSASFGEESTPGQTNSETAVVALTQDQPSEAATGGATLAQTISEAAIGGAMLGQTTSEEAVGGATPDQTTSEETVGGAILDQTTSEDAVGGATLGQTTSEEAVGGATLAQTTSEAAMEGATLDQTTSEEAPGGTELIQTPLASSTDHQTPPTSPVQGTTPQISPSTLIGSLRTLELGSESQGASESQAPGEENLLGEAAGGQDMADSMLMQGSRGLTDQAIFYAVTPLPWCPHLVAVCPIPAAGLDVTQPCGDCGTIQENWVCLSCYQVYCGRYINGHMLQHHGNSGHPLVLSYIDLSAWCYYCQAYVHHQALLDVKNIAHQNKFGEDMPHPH
In short: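 Enzyme was preincubated with compound (8 doses, triplicate, 1% DMSO) in 25 mM Tris-HCl pH 8, 130 mM NaCl, 0.05% Tween-20, 10% glycerol, with BSA. A FLUOR DE LYS-Green substrate was then added, and fluorescence was read after developer plus 2 μM TSA.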

[2] = Stability to Phase I metabolism in human S9 liver fraction; details: after 90 minutes, 37° C.
[3] = Stability in human plasma; details: after 4 hours, 37° C.
Protocol: In order to evaluate the stability to circulating enzymes, test compounds were incubated in human and rat plasma at 37° C. in a thermostated oscillating bath. Each test compound was incubated at μM concentration (50 μM when the samples were analysed by UV/HPLC, 1 or 2 μM when the samples were analysed by LC-MS/MS) for 0, 15, 30 minutes and 1, 2 and 4 hours. The reaction was stopped placing samples on ice bath and adding acidified acetonitrile. After centrifugation (10 minutes at 14000 rpm) an aliquot of the supernatant was diluted with water, filtered with 0.45 μm regenerated cellulose syringe filters and injected in HPLC-UV or in LC-MS/MS. The percentage of the remaining amount at the various incubation times with respect to the initial amount were calculated. The half-life in plasma was also calculated.

SMILES | residual percentage in RAT S9 FRACTION [1] | residual percentage in RAT PLASMA (Stability in rat plasma) | pIC50 (recombinant human HDAC1) | pIC50 (recombinant human HDAC6) | residual percentage in HUMAN S9 FRACTION [2] | residual percentage in HUMAN PLASMA [3]
CCC[C@H](c1ccc(-c2nnc(C(F)F)o2)cc1)n1cc(-c2ccc(N)nc2)nn1 [compound 143, (R)-5-(1-(1-(4-(5-(difluoromethyl)-1,3,4-oxadiazol-2-yl)phenyl)butyl)-1H-1,2,3-triazol-4-yl)pyridin-2-amine] | 71% | 80% | < 3.70 | 7.22 | 89% | 60%
CC(c1ccc(-c2nnc(C(F)F)o2)cc1)n1cc(-c2ccc(N)nc2)nn1 (centres unmarked) [Compd. 117, 5-(1-(1-(4-(5-(difluoromethyl)-1,3,4-oxadiazol-2-yl)phenyl)ethyl)-1H-1,2,3-triazol-4-yl)pyridin-2-amine] | 71% | 74% | < 3.70 | 7.36 | 93% | 92%
O=C(c1cccc(-c2nnn(Cc3ccc(-c4nnc(C(F)F)o4)cn3)n2)c1)N1CCOCC1 [compound 69, (3-(2-((5-(5-(difluoromethyl)-1,3,4-oxadiazol-2-yl)pyridin-2-yl)methyl)-2H-tetrazol-5-yl)phenyl)(morpholino)methanone] | 83% | 79% | < 3.70 | 7.52 | 97% | 79%
Cc1ncccc1-c1cn(Cc2c(F)cc(-c3nnc(C(F)F)o3)cc2F)nn1 [compound 105, 2-(3,5-difluoro-4-((4-(2-methylpyridin-3-yl)-1H-1,2,3-triazol-1-yl)methyl)phenyl)-5-(difluoromethyl)-1,3,4-oxadiazole] | 71% | 81% | < 3.70 | 7.39 | 99% | 84%
FC(F)c1nnc(-c2ccc(Cn3cc(-c4ccc(NC5=NCCN5)cc4)cn3)cc2)o1 [compound 269, N-(4-(1-(4-(5-(difluoromethyl)-1,3,4-oxadiazol-2-yl)benzyl)-1H-pyrazol-4-yl)phenyl)-4,5-dihydro-1H-imidazol-2-amine] | 69% | 71% | < 3.70 | 7.82 | 81% | 80%
CC(c1ccc(-c2nnc(C(F)F)o2)cn1)n1cc(-c2ccc(N)nc2)nn1 (centres unmarked) [Compd. 59, 5-(1-(1-(5-(5-(difluoromethyl)-1,3,4-oxadiazol-2-yl)pyridin-2-yl)ethyl)-1H-1,2,3-triazol-4-yl)pyridin-2-amine] | 97% | 83% | < 3.70 | 7.62 | 98% | 87%
CN(C)C(=O)c1cccc(-c2nnn(Cc3ccc(-c4nnc(C(F)F)o4)cc3)n2)c1 [compound 81, 3-(2-(4-(5-(difluoromethyl)-1,3,4-oxadiazol-2-yl)benzyl)-2H-tetrazol-5-yl)-N,N-dimethylbenzamide] | 14% | 87% | < 3.70 | 7.48 | 78% | 87%
CCNc1ccc(-c2nnn(Cc3ccc(-c4nnc(C(F)F)o4)cc3)n2)cn1 [compound 99, 5-(2-(4-(5-(difluoromethyl)-1,3,4-oxadiazol-2-yl)benzyl)-2H-tetrazol-5-yl)-N-ethylpyridin-2-amine] | 18% | 93% | < 3.70 | 7.42 | 52% | 86%
COc1ccc(-c2nnn(Cc3ccc(-c4nnc(C(F)F)o4)cc3)n2)cc1OC [compound 128, 2-(difluoromethyl)-5-(4-((5-(3,4-dimethoxyphenyl)-2H-tetrazol-2-yl)methyl)phenyl)-1,3,4-oxadiazole] | 13% | 83% | < 3.70 | 7.31 | 30% | 96%
COc1ncc(NCc2ccc(-c3cn(Cc4ccc(-c5nnc(C(F)F)o5)cc4)nn3)cc2)cc1C(N)=O [compound 138, 5-((4-(1-(4-(5-(difluoromethyl)-1,3,4-oxadiazol-2-yl)benzyl)-1H-1,2,3-triazol-4-yl)benzyl)amino)-2-methoxynicotinamide] | 66% | – | < 3.70 | 7.27 | 70% | 92%
C[C@H](c1ccc(-c2nnc(C(F)F)o2)cc1)n1cc(-c2ccc(N)nc2)nn1 [compound 106, (R)-5-(1-(1-(4-(5-(difluoromethyl)-1,3,4-oxadiazol-2-yl)phenyl)ethyl)-1H-1,2,3-triazol-4-yl)pyridin-2-amine] | 69% | 78% | – | – | 78% | 86%
O=C1NCc2ccc(-c3nnn(Cc4c(F)cc(-c5nnc(C(F)F)o5)cc4F)n3)cc21 [compound 57, 6-(2-(4-(5-(difluoromethyl)-1,3,4-oxadiazol-2-yl)-2,6-difluorobenzyl)-2H-tetrazol-5-yl)isoindolin-1-one] | 86% | 68% | – | – | 70% | 62%
C[C@@H](c1ccc(-c2nnc(C(F)F)o2)cc1)n1cc(-c2ccc(N)nc2)nn1 [compound 255, (S)-5-(1-(1-(4-(5-(difluoromethyl)-1,3,4-oxadiazol-2-yl)phenyl)ethyl)-1H-1,2,3-triazol-4-yl)pyridin-2-amine] | 76% | 57% | – | – | 98% | 91%
CN1CC(C(=O)Nc2cccc(-c3cn(Cc4ccc(-c5nnc(C(F)F)o5)cc4)nn3)c2)C1 [compound 149, N-(3-(1-(4-(5-(difluoromethyl)-1,3,4-oxadiazol-2-yl)benzyl)-1H-1,2,3-triazol-4-yl)phenyl)-1-methylazetidine-3-carboxamide] | – | – | < 3.70 | 7.19 | – | –
CNc1ncc2cc(-c3cn(Cc4ccc(-c5nnc(C(F)F)o5)cc4F)nn3)ccc2n1 [compound 390, 6-[1-({4-[5-(difluoromethyl)-1,3,4-oxadiazol-2-yl]-2-fluorophenyl}methyl)-1H-1,2,3-triazol-4-yl]-N-methylquinazolin-2-amine] | – | – | 3.00 | 6.94 | – | –
FC(F)c1nnc(-c2ccc(Cn3cc(-c4ccccc4)nn3)cc2)o1 [compd. 234, 2-(difluoromethyl)-5-(4-((4-phenyl-1H-1,2,3-triazol-1-yl)methyl)phenyl)-1,3,4-oxadiazole] | – | – | < 3.70 | 6.69 | – | –
CS(=O)(=O)NCC[C@@H](c1ccc(-c2nnc(C(F)F)o2)cc1)n1cc(-c2ccc(N)nc2)nn1 [compound 310, N-[(3S)-3-[4-(6-aminopyridin-3-yl)triazol-1-yl]-3-[4-[5-(difluoromethyl)-1,3,4-oxadiazol-2-yl]phenyl]propyl]methanesulfonamide] | – | – | < 3.00 | 6.86 | – | –
CC(c1ccc(-c2nnc(C(F)F)o2)c(F)c1)n1cc(-c2cccc(NC(=O)N3CCOCC3)c2)nn1 (centres unmarked) [compound 189, N-(3-(1-(1-(4-(5-(difluoromethyl)-1,3,4-oxadiazol-2-yl)-3-fluorophenyl)ethyl)-1H-1,2,3-triazol-4-yl)phenyl)morpholine-4-carboxamide] | – | – | < 3.70 | 7.00 | – | –
O=C(Nc1cccc(-c2cn(Cc3c(F)cc(-c4nnc(C(F)F)o4)cc3F)nn2)c1)N1CCOCC1 [compound 78, N-(3-(1-(4-(5-(difluoromethyl)-1,3,4-oxadiazol-2-yl)-2,6-difluorobenzyl)-1H-1,2,3-triazol-4-yl)phenyl)morpholine-4-carboxamide] | 78% | – | < 3.70 | 7.49 | 94% | 62%
